Laboratory results as given in patent EP0189002B1, “Treatment of gastrointestinal disorders using 5-HT3 antagonists” (SANDOZ AG, priority 1984, dated 1986).

Columns and labels:
[1] = tested on: muscle strips from different parts of the guinea pig stomach; test: Test A: field stimulation-induced contractions in guinea pig stomach muscle strips; details: facilitation of field stimulation-induced contractions
Source text: The compounds of the invention facilitate field stimulation-induced contractions in muscle strips from different parts of the guinea pig stomach and are therefore indicated to increase decreased peristaltic movements in the stomach and to enhance gastric emptying in vivo. The test is effected as follows:-Male Dunkin-Hartley guinea pigs, 340-450 g, which had been starved overnight, were killed by cervical transsection and the stomach removed and placed in Krebs-Henseleit solution (NaCI 118.0, KCI 4.75, KH2P04 1.2, MgS04 1.2, CaC12 2.5, glucose 10 mM). Segments were taken from the body (approximately 20 mm long, 3-4 mm wide) with dissection in a plane suitable to investigate tension changes in the circular muscle layer. Tissues were placed in 30 ml organ baths containing oxygenated (95% 02, 5% C02) Krebs-Henseleit solution at 37 C. One gram tension was applied to the tissues which were allowed to equilibrate for 45-60 min. before electrical stimulation. […] Responses were measured as changes in gram tension, but to allow easier comparison between treatments, data were converted to show changes as percentage values. The significance of differences between control responses and those obtained in the presence of interacting drugs was assessed using the Mann-Whitney U test.

[2] = Test B: gastric emptying in conscious guinea pigs (X-ray passage of spheroids); format: in vivo; details: enhancing gastric emptying
Method: The compounds of the invention also induce gastric emptying as indicated in standard in vivo tests, e.g. in conscious guinea pigs having stomachs made atonic (i.e. having decreased peristaltic movements) by fasting and wherein the passage of glass spheroids was observed by X-ray techniques. The experiment is effected as follows: • Food was withdrawn for 14 hours before the measurement of gastric emptying. The experiment was conducted under low illumination which minimal noise and disturbance, and was carried out only by those experimentors who had daily contact with the guinea pigs and who carried out the initial training to accustom the guinea pigs to handling. Therefore, animals were subject to minimal stress. […] Gastric emptying was measured as the number of spheroids leaving the stomach.
Six guinea pigs were used at each dose level of drug and responses compared to those of guinea pigs receiving the appropriate vehicle. The significance of differences between drug and control responses was assessed using the Mann Whitney U test.

[3] = Test C: inhibition of 5-hydroxytryptophan (5-HTP) induced increase in gastrointestinal motility (charcoal transit); format: in vivo, NMRI mice; details: 30 minutes before 5-HTP 3 mg/kg, mice
Method: In a further test the inhibition of the increase in gastrointestinal motility induced by 5-hydroxytryptophan (5-HTP) by the compounds of the invention was observed.
Male NMRI mice (18-32 g in weight) are deprived of food 20 hours before the test. Water is not limited. The animals are separated by a barrier from their straw and access to feces. At the beginning of the test the animals are separated in individual single cages and water is removed.
All animals were treated with the test compound or saline. l.p. administration was used. Injection volume was 0.1 ml/10 g. 30 minutes after pre-treatment 5-HTP or saline was administered. Injection volume 0.1 ml /10 g. Dose 3 mg/kg. At the same time charcoal was administered perorally (10% suspension in water; 0.1 ml/10g). 45 minutes after the start of the experiment the animals were killed. The intestines from the stomach to the rectum were examined. For each animal the transit distance of the front of the charcoal meal along the intestine was measured. The distance was ascertained as a percentage of the whole intestinal length. Groups of at least 3 animals were used.

[4] = format: in vivo, NMRI mice; details: cholera toxin challenged mice
[5] = tested on: high affinity 5-HT receptor; test: 5-HT induced contraction of isolated longitudinal muscle of guinea pig ileum, high affinity receptor; details: guinea pig ileum longitudinal muscle strip, 5-HT as agonist
Source text: (§1) The isolated longitudinal muscle of the guinea pig ileum with its adhering myenteric plexus is a well established model which permits investigation of the mechanism of action of various neurtransmitters.
(§2) Male guinea pigs (200-400 g) were killed by a blow on the head and exsanguinated. A length of small intestine was removed about 2 cm from the ileo-caecal valve. The mesentery was carefully removed and the ileum was stretched over a glass rod. By stroking tangentially away from the mesenteric attachment with a wad of cotton wool, the longitudinal muscle layer was separated and stripped from the unterlying circular muscle. Longitudinal muscle strips, 3-4 cm length, were mounted in a 10 ml organ bath containing Tyrode solution at 37 ° C and bubbled with 5% carbon dioxide in oxygen. […] Contractions were recorded with an isotonic pendulum lever. […]
(§3) Non-cumulative concentration-response curves for 5-HT were established by adding increasing concentrations of the agonist to the organ bath at intervals of at least 15 min. […] The contractions expressed as percentage of the maximal response to 5-HT obtained from several preparations were plotted as mean values in order to obtain log-concentration-response curves. Inhibition constants were expressed in the form of pA2 values which were graphically determined according to conventional methods (Arunlakshana and Schild, 1959. Mc Kay 1978). […]

[6] = biological target: T1, low affinity 5-HT receptors (Cavia porcellus, UniProt O70212); test: 5-HT induced contraction of isolated longitudinal muscle of guinea pig ileum, low affinity receptor; details: guinea pig ileum longitudinal muscle strip, 5-HT as agonist
T1 construct: Longitudinal muscle strips, 3-4 cm length, were mounted in a 10 ml organ bath; from tissue; host or cells: guinea pig ileum longitudinal muscle with adhering myenteric plexus
T1 sequence (O70212 20-490): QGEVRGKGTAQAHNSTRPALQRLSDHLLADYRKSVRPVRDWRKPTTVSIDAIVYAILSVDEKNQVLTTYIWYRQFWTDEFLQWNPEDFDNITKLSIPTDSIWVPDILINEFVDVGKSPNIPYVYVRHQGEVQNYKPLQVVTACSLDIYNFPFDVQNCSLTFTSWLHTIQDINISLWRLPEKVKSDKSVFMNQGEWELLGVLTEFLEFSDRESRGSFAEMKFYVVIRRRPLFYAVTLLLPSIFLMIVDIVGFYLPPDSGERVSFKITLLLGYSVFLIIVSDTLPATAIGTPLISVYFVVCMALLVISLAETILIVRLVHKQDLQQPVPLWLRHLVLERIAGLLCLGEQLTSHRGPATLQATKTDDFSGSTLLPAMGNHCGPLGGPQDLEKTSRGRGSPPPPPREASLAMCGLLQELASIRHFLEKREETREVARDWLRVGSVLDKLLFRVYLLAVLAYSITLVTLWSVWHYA
Source text: as §1, §2, §3

dopamine binding sites = details: tritiated haloperidol; cited from earlier work

Row | Structure (SMILES) | ED50 i.p. [3] | pD'2 high affinity receptor [5] | pA2 low affinity receptor [6] | also measured
1 | CN1[C@@H]2CC[C@H]1C[C@@H](OC(=O)c1c[nH]c3ccccc13)C2 [Compound E, Indol-3-yl carboxylic acid endo-8-methyl-8-aza-bicyclo[3,2,1]-oct-3-yl ester] | 0.07 mg/kg | pD'2 = 5.7 | pA2 = 7.9 | times more active than metoclopramide [1]: 100 times; times more active than metoclopramide [2]: about 50 times; effect of an increase in the dose on stomach contents [4]: did not lead to a reduction in the stomach contents
2 | CCN(CC)CCNC(=O)c1cc(Cl)c(N)cc1OC [metoclopramide] | – | – | – | IC50 (dopamine binding sites): ~170 nM
3 | CN1[C@@H]2CCC[C@H]1C[C@@H](OC(=O)c1csc3ccccc13)C2 [Compound F, Benzo[b]thiophen-3-yl carboxylic acid endo-9-methyl-asa-bicyclo-[3,3,1]non-3-yl ester] | – | pD'2 = 5.9 | pA2 = 9.4 | ED50 ([3]; Mus musculus, i.p.): 0.025 mg/kg
4 | CN1[C@@H]2CCC[C@H]1C[C@@H](OC(=O)c1cn(C)c3ccc(F)cc13)C2 [Compound G, 5-fluoro-1-methyl-indol-3-yl carboxylic acid endo-9-methyl-9-aza-bicyclo[3,3,1]non-3-yl ester] | 0.002 mg/kg | – | – | –
